Consider one compound from patent publication US9517202B2, “Phospholipid depot” (LATITUDE PHARMACEUTICALS INC., priority 2009, dated 2016).

SMILES strings stand for the structures.

The data set is described as follows: Injectability test: force to extrude from 1 cc syringe through 25 G ½ inch needle at 2 cc/min. The conditions noted are these: 25 G ½ inch long needle. It counts as physicochemical. From the text: A major disadvantage of the polymer depots is that they require large diameter needles for injection or implantation due to the physical size of the microcapsules/microspheres and/or the high viscosity of the polymer gel. For example, 14- or 16-gauge (G) needles are required for implantation of Zoladex™ and 18 G or 20 G needles for injection of Eligard™. However, in common medical practice, needles of size greater than 21 G are generally not used for injection because they cause significant pain and psychological trauma for patients. […] The injectability or ease with which the end user can self-inject through such a system will be key to such a drug's user compliance and therapeutic efficacy. For discussion purposes herein, the injectability of a syringe-administered depot is quantitatively defined as meeting the “Acceptable Injectability Criterion” if it requires an applied force of no more than 10 pounds to be extruded from a 1 cc syringe through a 25 G ½ inch long needle at rate of 2 cc/min.
The phrase “Acceptable Injectability Criterion” as used herein includes quantitatively defining a formulation that requires an applied force of no more than 10 pounds to extrude the formulation from a 1 cc syringe through a 25 G ½ inch long needle at rate of 2 cc/min. […]
F-43 was a translucent one-phase gel. The injectability of F-43 was determined against the Acceptable Injectability Criterion. […]

Turning to `OCC(O)CO` [glycerin], the maximum injection force entry is reported as “approximately 8 pounds”.
